From patent US9061984B2 (University of Louisville Research Foundation, Inc., priority 2008, dated 2015)
Values after ≈ are worked out from the molar mass of the structure shown. Where two headings read alike, the source gives them in different places.

Legend:
[1] = test system: several cell lines (Panel/Cell Line); experiment: GI50, TGI and LC50 of compound II-21 for several cell lines (Table 12); conditions: 48-h exposure; for GI50 / CC50: Homo sapiens
L. braziliensis PER006 = experiment: Activity against macrophages infected with Leishmania amastigotes; conditions: Leishmania braziliensis, Macrophage, read-out: IC50 L. braziliensis PER006

C(=N/Nc1ncnc2sc3c(c12)CCCC3)/c1ccccn1 [II-21]
GI50 ([1]; NCI-H522, 48 h, Non-Small Cell Lung Cancer, NCI-H522): 0.419 µM
CC50 ([1]; NCI-H522, 48 h, read-out: LC50 (M), Non-Small Cell Lung Cancer, NCI-H522): > 0.0001 M
GI50 ([1]; NCI/ADR-RES, 48 h, Ovarian Cancer): 0.427 µM
CC50 ([1]; NCI/ADR-RES, 48 h, read-out: LC50 (M), Ovarian Cancer, NCI/ADR-RES): > 0.0001 M
GI50 ([1]; OVCAR-3, 48 h, Ovarian Cancer, OVCAR-3): 0.109 µM
CC50 ([1]; OVCAR-3, 48 h, read-out: LC50 (M), Ovarian Cancer, OVCAR-3): 4.39e-05 M
GI50 ([1]; OVCAR-4, 48 h, Ovarian Cancer, OVCAR-4): 0.431 µM
CC50 ([1]; OVCAR-4, 48 h, read-out: LC50 (M), Ovarian Cancer, OVCAR-4): > 0.0001 M
GI50 ([1]; OVCAR-5, 48 h, Ovarian Cancer, OVCAR-5): 0.823 µM
CC50 ([1]; OVCAR-5, 48 h, read-out: LC50 (M), Ovarian Cancer, OVCAR-5): > 0.0001 M
GI50 ([1]; OVCAR-8, 48 h, Ovarian Cancer, OVCAR-8): 0.481 µM
CC50 ([1]; OVCAR-8, 48 h, read-out: LC50 (M), Ovarian Cancer, OVCAR-8): > 0.0001 M
GI50 ([1]; RPMI-8226, 48 h, Leukemia, RPMI-8226): 0.35 µM
CC50 ([1]; RPMI-8226, 48 h, read-out: LC50 (M), Leukemia, RPMI-8226): > 0.0001 M
GI50 ([1]; RXF 393, 48 h, Renal Cancer, RXF 393): 0.423 µM
CC50 ([1]; RXF 393, 48 h, read-out: LC50 (M), Renal Cancer, RXF 393): 4.53e-05 M
GI50 ([1]; SF-268, 48 h, CNS Cancer, SF-268): 0.356 µM
CC50 ([1]; SF-268, 48 h, read-out: LC50 (M), CNS Cancer, SF-268): 8.3e-05 M
GI50 ([1]; SF-295, 48 h, CNS Cancer, SF-295): 0.313 µM
CC50 ([1]; SF-295, 48 h, read-out: LC50 (M), CNS Cancer, SF-295): > 0.0001 M
GI50 ([1]; SF-539, 48 h, CNS Cancer, SF-539): 0.391 µM
CC50 ([1]; SF-539, 48 h, read-out: LC50 (M), CNS Cancer, SF-539): 2.92e-05 M
GI50 ([1]; SK-MEL-2, 48 h, Melanoma, SK-MEL-2): 7.51 µM
CC50 ([1]; SK-MEL-2, 48 h, read-out: LC50 (M), Melanoma, SK-MEL-2): 6.78e-05 M
GI50 ([1]; SK-MEL-5, 48 h, Melanoma, SK-MEL-5): 0.332 µM
CC50 ([1]; SK-MEL-5, 48 h, read-out: LC50 (M), Melanoma, SK-MEL-5): 2.36e-05 M
GI50 ([1]; SK-MEL-28, 48 h, Melanoma, SK-MEL-28): 0.422 µM
CC50 ([1]; SK-MEL-28, 48 h, read-out: LC50 (M), Melanoma, SK-MEL-28): 5.46e-05 M
GI50 ([1]; SK-OV-3, 48 h, Ovarian Cancer, SK-OV-3): 0.41 µM
CC50 ([1]; SK-OV-3, 48 h, read-out: LC50 (M), Ovarian Cancer, SK-OV-3): > 0.0001 M
GI50 ([1]; SN12C, 48 h, Renal Cancer): 0.426 µM
CC50 ([1]; SN12C, 48 h, read-out: LC50 (M), Renal Cancer, SN12C): 8.1e-05 M
GI50 ([1]; SNB-19, 48 h, CNS Cancer, SNB-19): 0.767 µM
CC50 ([1]; SNB-19, 48 h, read-out: LC50 (M), CNS Cancer, SNB-19): > 0.0001 M
GI50 ([1]; SNB-75, 48 h, CNS Cancer, SNB-75): 0.585 µM
CC50 ([1]; SNB-75, 48 h, read-out: LC50 (M), CNS Cancer, SNB-75): 4.93e-05 M
GI50 ([1]; SW-620, 48 h, Colon Cancer, SW-620): 0.561 µM
CC50 ([1]; SW-620, 48 h, read-out: LC50 (M), Colon Cancer, SW-620): 5.95e-05 M
GI50 ([1]; T47D, 48 h, Breast Cancer, T-47D): 0.0764 µM
CC50 ([1]; T47D, 48 h, read-out: LC50 (M), Breast Cancer, T-47D): > 0.0001 M
GI50 ([1]; TK-10, 48 h, Renal Cancer, TK-10): 0.486 µM
CC50 ([1]; TK-10, 48 h, read-out: LC50 (M), Renal Cancer, TK-10): > 0.0001 M
GI50 ([1]; U-251, 48 h, CNS Cancer, U251): 0.369 µM
CC50 ([1]; U-251, 48 h, read-out: LC50 (M), CNS Cancer, U251): 3.48e-05 M
GI50 ([1]; UACC-62, 48 h, Melanoma, UACC-62): 0.379 µM
CC50 ([1]; UACC-62, 48 h, read-out: LC50 (M), Melanoma, UACC-62): 4.84e-05 M
GI50 ([1]; UACC-257, 48 h, Melanoma, UACC-257): 0.355 µM
CC50 ([1]; UACC-257, 48 h, read-out: LC50 (M), Melanoma, UACC-257): 4.17e-05 M
GI50 ([1]; UO-31, 48 h, Renal Cancer, UO-31): 0.286 µM
CC50 ([1]; UO-31, 48 h, read-out: LC50 (M), Renal Cancer, UO-31): 6.3e-05 M
TGI ([1]; Leukemia, CCRF-CEM): 0.769 µM
TGI ([1]; Leukemia, HL-60(TB)): 0.407 µM
TGI ([1]; Leukemia, K-562): 10.8 µM
TGI ([1]; Leukemia, MOLT-4): 0.774 µM
TGI ([1]; Leukemia, RPMI-8226): 12.5 µM
TGI ([1]; Leukemia, SR): 0.953 µM
TGI ([1]; Melanoma, M14): 0.599 µM
TGI ([1]; Melanoma, MALME-3M): 10.3 µM
TGI ([1]; Melanoma, MDA-MB-435): 25.1 µM
TGI ([1]; Melanoma, SK-MEL-2): 25.5 µM
TGI ([1]; Melanoma, SK-MEL-5): 1.72 µM
TGI ([1]; Melanoma, SK-MEL-28): 16.7 µM
TGI ([1]; Melanoma, UACC-62): 6.54 µM
TGI ([1]; Non-Small Cell Lung Cancer, A549/ATCC): 14.9 µM
TGI ([1]; Non-Small Cell Lung Cancer, EKVX): 20.5 µM
TGI ([1]; Non-Small Cell Lung Cancer, HOP-62): 17.7 µM
TGI ([1]; Non-Small Cell Lung Cancer, HOP-92): 31 µM
TGI ([1]; Non-Small Cell Lung Cancer, NCI-H23): 34.3 µM
TGI ([1]; Non-Small Cell Lung Cancer, NCI-H226): 16.2 µM
TGI ([1]; Non-Small Cell Lung Cancer, NCI-H322M): 35 µM
TGI ([1]; Non-Small Cell Lung Cancer, NCI-H460): 1.73 µM
TGI ([1]; Non-Small Cell Lung Cancer, NCI-H522): 23.2 µM
TGI ([1]; Ovarian Cancer, IGROV1): 28.9 µM
TGI ([1]; Ovarian Cancer, NCI/ADR-RES): 58.1 µM
TGI ([1]; Ovarian Cancer, OVCAR-3): 14.5 µM
TGI ([1]; Ovarian Cancer, OVCAR-4): 26.3 µM
TGI ([1]; Ovarian Cancer, OVCAR-5): 31.4 µM
TGI ([1]; Ovarian Cancer, OVCAR-8): >100 µM
TGI ([1]; Ovarian Cancer, SK-OV-3): 29.2 µM
TGI ([1]; Prostate Cancer, DU-145): 15.1 µM
TGI ([1]; Prostate Cancer, PC-3): 71.1 µM
TGI ([1]; Renal Cancer, 786-0): 0.947 µM
TGI ([1]; Renal Cancer, A498): 8.81 µM
TGI ([1]; Renal Cancer, ACHN): 11 µM
TGI ([1]; Renal Cancer, CAKI-1): 14.8 µM
TGI ([1]; Renal Cancer, RXF 393): 10.6 µM
TGI ([1]; Renal Cancer, SN12C): 15.3 µM
TGI ([1]; Renal Cancer, TK-10): 56.6 µM
TGI ([1]; Renal Cancer, UO-31): 1.65 µM
IC50 (L. braziliensis PER006): 0.19 µg/mL (≈ 0.614 µM)
